# Laboratory results as given in EP2522350A1, “Use of the active ingredient combination of a 1-diethylaminoethyl-3-chinoxalin-2-on derivative and an oxysterol for breaking resistance in the treatment of cancer and strengthening the immune system against cancer, bacterial and viral diseases, autoimmune diseases, increased stress and …” (Immunopharm AG, priority 2011, dated 2012).
# Assay: ORAC value (Oxygen Radical Absorbing Capacity)
# Settings: ratio to other antioxidants; no test described
compound,measurement,value
"CCN(CC)CCn1c(=O)c(Cc2ccc(OC)cc2)nc2ccccc21 [Caroverin, 1-(2-Diethylaminoethyl)-3-(p-methoxy-benzyl)-1,2-dihydrochinoxalin-2-on]","ORAC-Wert, höher gegenüber allen anderen bekannten Antioxidantien wie Vitamin C, E oder Glutathion",≤ 1000 fach
